Assay results from patent publication US10945989B2, “Perinatal treatment with a flavonoid agonist of the TrkB receptor for BDNF rescues neurogenesis and behavior in the Ts65Dn mouse model of DS” (ALMA MATER STUDIORUM—Universita' di Bologna, priority 2017, dated 2021).

Key:
[1] = tested on: NPCs from the SVZ of Ts65Dn mice; assay: Proliferation of NPC cultures (Cell Titer-Glo); type: cell-based, mouse; settings: 96 h
Experimental: Cells were isolated from the subventricular zone (SVZ) of the lateral ventricle and the subgranular zone (SGZ) of the hippocampal dentate gyrus (DG) of newborn (P1-P2) euploid and Ts65Dn mice. Briefly, brains were removed, the SVZ and SGZ regions were isolated and individually collected in ice-cold PIPES buffer pH 7.4. After centrifugation, tissue was digested for 10 min at 37° C. using Trypsin/EDTA 0.25% (Life Technologies) aided by gentle mechanical dissociation. Cell suspension from each individual mouse was plated onto 25 cm^2 cell-culture flask (Thermo Fisher Scientific) and cultured as floating neurospheres in medium containing basic fibroblast growth factor (bFGF, 10 ng/ml; Peprotech) and epidermal growth factor (EGF, 20 ng/ml; Peprotech) using an established protocol (Meneghini et al., 2014). […] Cell proliferation was quantified as relative luminescence units (RLU) values using Cell Titer-Glo viability assay reagent (Promega) on aVictor^3-V plate reader (PerkinElmer). […] In each experiment, five fields/well (corresponding to about 150-200 cells/well) were counted with a 60× objective by a Leica DMIRB inverted fluorescence microscope. Immunoreactive cells were counted and their percentage over total viable cells was calculated. […]

[2] = tested on: cultures of NPCs; assay: Apoptotic cells in NPC cultures; type: cell-based, mouse; settings: data not shown
[3] = tested on: synaptophysin (SYN); assay: Western blot of hippocampal homogenates: synaptophysin; type: in vivo, mouse
Experimental: Euploid and Ts65Dn mice received a daily subcutaneous injection (at 9-10 am) of 7,8-DHF (5.0 mg/kg in vehicle: PBS with 1% DMSO) or vehicle from postnatal day 3 (P3) to postnatal day 15. This timing was chosen because it corresponds to that previously used to test the effects of fluoxetine and other pharmacotherapies in the neonate Ts65Dn mouse (Bianchi et al., 2010b; Giacomini et al., 2015; Stagni et al., 2016). Mice that received 7,8-DHF will be called “treated mice” (treated euploid mice: n=25; treated Ts65Dn mice: n=15). Mice that received the vehicle will be called “untreated mice” (untreated euploid mice: n=35; untreated Ts65Dn mice: n=21). […] The brains were excised and cut along the midline. The left hemisphere of a group of mice was fixed by immersion in PFA 4% and frozen, and the left hemisphere of another group of mice was used for Golgi staining. […]
In homogenates of the hippocampal formation of P15 mice, total proteins were obtained as previously described (Trazzi et al., 2011) and the levels of the following proteins were evaluated: BDNF, TrkB full length (TrkB-FL), phosphorylated TrkB (p-TrkB), the truncated form 1 of the TrkB receptor (TrkB-T1), phosphorylated ERK1 (p-ERK1), phosphorylated ERK2 (p-ERK2), ERK1, ERK2, synaptophysin (SYN), GAPDH and α-Tubulin using the antibodies reported in Table 1. […]

[4] = Prenatal treatment: body and brain weight of P2 mice; type: in vivo, mouse; settings: P2 Ts65Dn mice, embryonic treatment
Experimental: Ts65Dn females (n=4) were bred C57BL/6JEi×C3SnHeSnJ (B6EiC3) F1 males (n=4). Conception was determined by examining the vaginal plug. Pregnant females received a daily subcutaneous injection of either 7,8-DHF (Sigma-Aldrich) in PBS with 2% DMSO (dose: 5 mg/kg) or vehicle from the embryonic (E) day 10 (E10) to the day of delivery (E20/21). […] On postnatal day 2 (P2) the progeny of 7,8-DHF-treated and vehicle-treated females received an intraperitoneal injection (150 μg/g body weight) of BrdU (Sigma) in 0.9% NaCl solution and were killed after 2 h (on P2; 4-8 animals for each group). Vehicle-treated females and their progeny will be called hereafter untreated mice. The body weight of P2 mice was recorded prior to sacrifice. After sacrifice, brain was excised and weighed.

Structure (SMILES): O=c1cc(-c2ccccc2)oc2c(O)c(O)ccc12 [7,8-DHF, 7,8-dihydroxyflavone]
- proliferation rate of trisomic NPCs ([1]; highest concentration 10.0 μM): reduced proliferation
- proliferation rate of trisomic NPCs ([1]; tested concentrations 0.3-10.0 μM, vs vehicle): none of the tested concentrations was able to increase the proliferation rate
- number of apoptotic cells [2]: no effect of treatment
- SYN levels in the hippocampus ([3]; P15 Ts65Dn mice, became similar to untreated euploid mice): increased SYN levels
- SYN levels in the hippocampus ([3]; P15 euploid mice, vs untreated counterparts): increase in SYN levels
- body weight [4]: did not further reduce the body weight
